Source: patent publication US11472806B2, “Substituted heterocyclic compounds as allosteric modulators of group II metabotropic glutamate receptors” (Domain Therapeutics, priority 2017, dated 2022)
Structures can show the parent of a compound that is named as a salt.

Tested on: not given
Assay: not given
Settings: not given

Structure (SMILES)	melting point [°C]
Cc1ncccc1-c1cnc2c(c1)-n1cccc1C(=O)N(C)C2 (as salt: hydrochloride) [Example 6, 5-Methyl-9-(2-methyl-pyridin-3-yl)-5,6-dihydro-5,7,10b-triaza-benzo[e]azulen-4-one, dihydrochloride]	> 250
Cc1ncccc1-c1cc2c(nn1)CN(C)C(=O)c1cccn1-2 (as salt: hydrochloride) [Example 8, 5-Methyl-9-(2-methyl-pyridin-3-yl)-5,6-dihydro-5,7,8,10b-tetraaza-benzo[e]azulen-4-one, dihydrochloride]	> 250
COCn1cc2c(n1)C(=O)N(C)C1(CC1)c1ccc(-c3ccc(F)nc3)cc1-2 [Example 75, 2-(Methoxymethyl)-5-methyl-9-(6-fluoro-pyridin-3-yl)-2H-spiro[benzo[c]pyrazolo[4,3-e]azepine-6,1′-cyclopropan]-4(5H)-one]	198 to 200

Now from value to compound:

melting point [°C]	Structure (SMILES)
> 250	Cc1ncccc1-c1cnc2c(n1)-n1cccc1C(=O)N(C)C2 (as salt: hydrochloride) [Example 7, 5-Methyl-9-(2-methyl-pyridin-3-yl)-5,6-dihydro-5,7,10,10b-tetraaza-benzo[e]azulen-4-one, dihydrochloride]
> 250	Cc1ncccc1-c1ccc2c(c1)-c1ccccc1C(=O)N(C)C21CC1 (as salt: hydrochloride) [Example 21, 10-(2-Methyl-pyridin-3-yl)-6-methyl-6,7-dihydro-spiro[dibenzo[c,e]azepine-7,1′-cyclopropan]-5-one, hydrochloride]
219 to 223	COCn1cc2c(n1)C(=O)N(C)C1(CC1)c1ccc(-c3ccc(F)cn3)cc1-2 [Example 76, 2-(Methoxymethyl)-5-methyl-9-(5-fluoro-pyridin-2-yl)-2H-spiro[benzo[c]pyrazolo[4,3-e]azepine-6,1′-cyclopropan]-4(5H)-one]

Target: T1, human mGluR3 (hmGluR3) (Homo sapiens, UniProt Q14832)
T1 construct: expressed in transfected cells; host or cells: HEK-293 cells, transient co-transfection by electroporation
T1 sequence (Q14832 23-879): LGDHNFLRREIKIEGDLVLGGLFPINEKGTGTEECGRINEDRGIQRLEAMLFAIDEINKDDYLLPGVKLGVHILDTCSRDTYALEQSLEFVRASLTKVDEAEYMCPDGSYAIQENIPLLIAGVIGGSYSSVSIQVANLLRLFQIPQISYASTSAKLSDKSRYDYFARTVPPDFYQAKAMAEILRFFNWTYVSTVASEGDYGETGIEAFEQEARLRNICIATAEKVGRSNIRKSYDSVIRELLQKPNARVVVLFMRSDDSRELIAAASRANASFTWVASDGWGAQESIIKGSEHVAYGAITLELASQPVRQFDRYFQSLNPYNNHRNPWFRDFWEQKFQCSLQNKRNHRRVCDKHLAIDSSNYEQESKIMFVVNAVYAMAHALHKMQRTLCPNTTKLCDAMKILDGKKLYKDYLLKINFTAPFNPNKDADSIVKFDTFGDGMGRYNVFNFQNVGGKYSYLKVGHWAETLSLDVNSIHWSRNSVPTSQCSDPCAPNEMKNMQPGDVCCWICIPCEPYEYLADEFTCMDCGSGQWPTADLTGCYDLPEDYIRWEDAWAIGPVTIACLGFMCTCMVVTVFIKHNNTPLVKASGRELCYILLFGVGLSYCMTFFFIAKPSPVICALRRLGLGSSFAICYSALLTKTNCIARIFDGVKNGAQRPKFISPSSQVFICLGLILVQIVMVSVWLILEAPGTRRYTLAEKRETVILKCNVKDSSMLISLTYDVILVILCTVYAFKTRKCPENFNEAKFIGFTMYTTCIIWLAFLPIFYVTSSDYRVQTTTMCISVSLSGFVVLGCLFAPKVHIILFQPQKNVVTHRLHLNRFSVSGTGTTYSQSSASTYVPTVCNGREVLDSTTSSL
Assay: Human mGluR3 positive allosteric modulator evaluation using Ca++ functional assay
Type: cell-based
Settings: hmGluR3 transiently over-expressed in HEK-293 cells; cells stimulated by an EC50 glutamate concentration; intracellular Ca2+ (Fluo4AM, FLIPR Tetra)
Method: Example 89: Human mGluR3 Positive Allosteric Modulator Evaluation Using Ca++ Functional Assay
Compounds of the present invention were tested successively for their agonist and positive allosteric modulator activities on human mGluR3 (hmGluR3) transiently over-expressed in HEK-293 cells. Compounds exert agonist activity if they are able to activate hmGluR3 by themselves, i.e., in absence of the endogenous agonist glutamate; and they exert positive allosteric modulator activity if they increase the action of the endogenous agonist glutamate.
Cell Culture and Transfection:
HEK-293 cells were maintained in Modified Eagle's Medium supplemented with 10% Foetal Calf Serum, 1% Penicillin/Streptomycin and 1% non-essential amino acids at 37° C./5% CO2. Cells were co-transfected by electroporation with four DNA plasmids encoding hmGluR3, a chimeric G protein allowing redirection of the activation signal toward intracellular calcium pathway, and two glutamate transporters so as to decrease extracellular glutamate levels and avoid receptor desensitization (Brabet I et al., Neuropharmacology 37(8), 1043-51, 1998). After transfection, cells were seeded in 75 cm^2 culture flasks, and cultured for 24 h.
Calcium Assa EC50 determination:
Receptor activity was detected by changes in intracellular calcium measured using the fluorescent Ca^2+ sensitive dye, Fluo4AM (Molecular Probes).
The day of the assay, medium was aspirated and replaced during 3 hrs by freshly prepared buffer B (HBSS 1×, Hepes 20 mM, MgSO4-7H2O 1 mM, Na2CO3 3.3 mM, CaCl2-2H2O 1.3 mM, 0.5% BSA, Probenecid 2.5 mM). Then, cells were loaded at 37° C./5% CO2 for 1.5 hrs with buffer B containing 1 μM Fluo4AM, 0.1 mg/mL Pluronic Acid, 7 μg/mL Glutamate Pyruvate Transaminase and 2 mM sodium pyruvate. Afterwards cells were washed with buffer B. Cells were then detached from the 75 cm^2 culture flasks with Accutase® (5 min incubation at 37° C.), centrifuged (5 min at 840 rpm), resuspended in buffer B and finally seeded at a density of 30,000 cells/well in black-walled clear-bottom 384-well plates. Addition of compounds on cells and intracellular Ca^2+ measurements (excitation 485 nm, emission 525 nm) were performed by the fluorescence microplate reader FLIPR Tetra (Molecular Devices).
Agonist and positive allosteric modulator activities of compounds were consecutively evaluated on the same cells plate. Agonist activity was first tested during 10 min with the addition of compound alone on the cells. Then, the cells were stimulated by an EC50 glutamate concentration and fluorescence was recorded for additional 3 min. EC50 glutamate concentration is the concentration giving 50% of the maximal glutamate response. Agonist and/or positive allosteric modulator activity(ies) were evaluated in comparison to basal signal or signal evoked by EC50 glutamate concentration alone, respectively.
For potency determination, a dose-response test was performed using 20 concentrations of each compound of the invention. Dose-response curves were fitted using the sigmoïdal dose-response (variable slope) analysis in XLfit Scientific Curve Fitting for Excel (IDBS). EC50 of agonist/EC50 of positive allosteric modulator activity(ies) were calculated. Dose-response experiments were all performed in duplicate, two times independently.

EC50 [nM]	Structure (SMILES)
100 to 1000	COCn1cc2c(n1)C(=O)N(C)Cc1ccc(-c3ccc(F)nc3)cc1-2 [Example 66, 2-Methoxymethyl-5-methyl-9-(6-fluoro-pyridin-3-yl)-5,6-dihydro-2H-2,3,5-triaza-benzo[e]azulen-4-one]
1000 to 10000	Cc1ncccc1-c1ccc2c(c1)-c1cn(C)nc1C(=O)N(C)C2 [Example 68, 2,5-Dimethyl-9-(2-methyl-pyridin-3-yl)-5,6-dihydro-2H-2,3,5-triaza-benzo[e]azulen-4-one]
1000 to 10000	COCCn1cc2c(n1)C(=O)N(C)Cc1ccc(-c3cccnc3C)cc1-2 [Example 72, 2-(2-Methoxy-ethyl)-5-methyl-9-(2-methyl-pyridin-3-yl)-5,6-dihydro-2H-2,3,5-triaza-benzo[e]azulen-4-one]
< 100	COCn1cc2c(n1)C(=O)N(C)C1(CC1)c1ccc(-c3ccc(F)cn3)cc1-2 [Example 76, 2-(Methoxymethyl)-5-methyl-9-(5-fluoro-pyridin-2-yl)-2H-spiro[benzo[c]pyrazolo[4,3-e]azepine-6,1′-cyclopropan]-4(5H)-one]
